For data set [1], the system named is P. falciparum strain K1. The data set is described as follows: In vitro antiplasmodial activity. The data set is classed as cell-based. The following applies: Plasmodium falciparum. Here is the method:
(§1) The antiplasmodial and cytotoxic activity determinations of all cyclopeptide alkaloids were performed as reported before. Each experiment was performed at least in triplicate and the average IC50 values were calculated.

Data set [2] can be described thus: Cytotoxicity against MRC-5 cells. The following applies: human. The procedure:
as §1

The next data set has as its system Plasmodium falciparum. The note with it: cited from earlier work; for IC50: read-out: antiplasmodial IC50.
Data set [3] concerns P. falciparum strain K1. On the set-up: method as in PMID 27351950, PMID 27933893. The following applies: previously reported by the same group, same test conditions; cited from earlier work.
The next data set deals with MRC-5 cells. The following applies: cited from earlier work.
Where [4] appears, read: strain K1, average of at least triplicate, read-out: P. falciparum K1 IC50.
Setting [5] is: read-out: MRC-5 IC50, cytotoxicity, previously reported by the same group.
The mark [6] stands for this setting: corresponding to the μg/mL values, Suksamrarn et al.

Like-named read-outs stand apart in the source and are kept apart here.

Broadly, the IC50 is the concentration that inhibits the measured activity by half. Consider `CCN(CC)CCCC(C)Nc1ccnc2cc(Cl)ccc12` (stereo not shown) [Chloroquine, reference compound], for which, in the data set with P. falciparum strain K1 [1] (K1, read-out: P. falciparum K1 IC50), the IC50 turned out to be 0.15 µM.

As for `CCC(C)[C@@H]1NC(=O)[C@@H]2[C@H](CCN2C(=O)[C@@H](NC)C(C)CC)Oc2ccc(cc2)/C=C\NC1=O` (stereo partly shown) [Compound 1, Nummularine-U], the IC50 with P. falciparum strain K1 [1] (setting [4]) is 23 ± 8.5 µM; in data set [2] (MRC-5 cells), greater than 64 µM.

Turning to `CN[C@@H](C)C(=O)N[C@H](C(=O)N1CC[C@@H]2Oc3ccc(cc3)/C=C\NC(=O)[C@H](Cc3ccccc3)NC(=O)[C@H]21)C(C)C` [Compound 2, Mauritine-F], the IC50 in the data set with P. falciparum strain K1 [1] (setting [4]) is 34.2 ± 9.14 µM; in data set [2], greater than 64 µM.

For `CCC(C)[C@@H]1NC(=O)[C@@H]2[C@H](CCN2C(=O)[C@@H](NC(=O)[C@H](Cc2ccccc2)N(C)C)C(C)CC)Oc2ccc(O)c(c2)/C=C\NC1=O` (stereo partly shown) [Compound 3, Spinanine-B], the values for the IC50 (in the data set on P. falciparum strain K1 [1] (setting [4]); in data set [2]) were 2.1 ± 0.3 µM and greater than 64 µM, respectively.

Turning to `CC(C)C[C@@H]1NC(=O)[C@@H](NC(=O)[C@H](C(C)O)N(C)C)[C@H](c2ccccc2)Oc2ccc(cc2)/C=C\NC1=O` (stereo partly shown) [Compound 4, Nummularine-E], the IC50 (in the data set with P. falciparum strain K1 [1] (setting [4]); in data set [2] (MRC-5 cells)) was greater than 64 µM throughout.

On to `CCC(C)[C@@H]1NC(=O)[C@@H]2[C@H](CCN2C(=O)[C@@H](NC(=O)[C@H](Cc2ccccc2)N(C)C)C(C)CC)Oc2ccc(cc2)/C=C\NC1=O` (stereo partly shown) [Compound 5, Amphibine-D], for which the results for the IC50 (in the data set on P. falciparum strain K1 [1] (setting [4]); in data set [2]) were 8.9 ± 1.5 µM and greater than 64 µM, respectively.

For the compound `CN[C@@H](C)C(=O)N[C@H](C(=O)N1CC[C@@H]2Oc3ccc(OC)c(c3)/C=C\NC(=O)[C@H](C(C)C)NC(=O)[C@H]21)C(C)C` [Compound 6, Jubanine-F], the IC50 in the data set with P. falciparum strain K1 [1] (setting [4]) was 12.8 ± 2.9 µM; in data set [2] it was greater than 64 µM.

Take `CCC(C)[C@H](NC(=O)[C@H](C)NC)C(=O)N1CC[C@@H]2Oc3ccc(OC)c(c3)/C=C\NC(=O)[C@H](C(C)C)NC(=O)[C@H]21` (stereo partly shown) [Compound 7, Jubanine-G]: the values for the IC50 (in the data set with P. falciparum strain K1 [1] (setting [4]); in data set [2]) were 4.7 ± 2.4 µM and greater than 64 µM, respectively.

For `CN[C@@H](C)C(=O)N[C@H](C(=O)N1CC[C@@H]2Oc3ccc(OC)c(c3)/C=C\NC(=O)[C@H](Cc3ccccc3)NC(=O)[C@H]21)C(C)C` [Compound 8, Nummularine-B], the IC50 in the data set on P. falciparum strain K1 [1] (setting [4]) was 3.6 ± 1.3 µM; in data set [2], greater than 64 µM; with Plasmodium falciparum (Panseeta et al.) it was 10.3 µM. Also, the “antiplasmodial activity against Plasmodium falciparum (in words)” value in the data set with Plasmodium falciparum (Panseeta et al.) is “moderately active”.

Turning to `CC[C@H](C)[C@@H]1NC(=O)[C@@H](NC(=O)[C@H](CC(C)C)N(C)C)[C@H](C(C)C)Oc2ccc(cc2)/C=C\NC1=O` [Compound 9, Adouetine-X], the IC50 turned out to be 7.5 ± 1.8 µM with P. falciparum strain K1 [1] (setting [4]) and 19.1 ± 11.9 µM in data set [2] (MRC-5 cells).

For `CCC(C)[C@@H](C(=O)N[C@@H]1C(=O)N[C@@H](CC(C)C)C(=O)N/C=C\c2ccc(cc2)O[C@H]1C(C)C)N(C)C` (stereo partly shown) [Compound 10, Frangulanine], the IC50 was determined as 14.9 ± 5.2 µM in the data set with P. falciparum strain K1 [1] (setting [4]) and 30.6 ± 6.5 µM in data set [2] (MRC-5 cells).

For `CCC(C)[C@@H](C(=O)N[C@H](C(=O)N[C@@H]1C(=O)N[C@@H](Cc2c[nH]c3ccccc23)C(=O)NCC(=O)c2ccc(cc2)OC1(C)C)C(C)C)N(C)C` (stereo partly shown) [Compound 11, Hymenocardine], the IC50 in the data set with P. falciparum strain K1 [3] is 16.4 ± 6.8 µM; in the data set with MRC-5 cells, 51.1 ± 17.2 µM.

For `CCC(C)[C@@H](C(=O)N[C@H](C(=O)N[C@@H]1C(=O)N[C@@H](Cc2c[nH]c3ccccc23)C(=O)NCC(O)c2ccc(cc2)OC1(C)C)C(C)C)N(C)C` (stereo partly shown) [Compound 12, Hymenocardinol], the IC50 with P. falciparum strain K1 [3] was 17.5 ± 8.7 µM; in the data set with MRC-5 cells it was greater than 64 µM.

For `CCC(C)[C@@H](C(=O)N[C@H](C(=O)N[C@@H]1C(=O)N[C@@H](Cc2c[nH]c3ccccc23)C(=O)NCC(=O)c2ccc(cc2)OC1(C)C)C(C)C)[N+](C)(C)[O-]` (stereo partly shown) [Compound 13, Hymenocardine N-oxide], the IC50 in the data set on P. falciparum strain K1 [3] was 12.2 ± 6.6 µM; in the data set with MRC-5 cells, greater than 64 µM.

For the compound `CCC(C)[C@H](NC(=O)[C@H](C(C)CC)N(C)C)C(=O)N[C@@H]1C(=O)N[C@@H](Cc2c[nH]cn2)C(=O)NCC(=O)c2ccc(cc2)O[C@H]1C(C)C` (stereo partly shown) [Compound 14, Hymenocardine-H], the IC50 in the data set on P. falciparum strain K1 [3] was 27.9 ± 16.5 µM; in the data set on MRC-5 cells it was greater than 64 µM.

Take `CCC(C)[C@@H]1NC(=O)[C@@H]2[C@H](CCN2C(=O)[C@H](Cc2c[nH]c3ccccc23)N(C)C)Oc2ccc(OC)c(c2)/C=C\NC1=O` (stereo partly shown) [Compound 15, Nummularine-R]: the results for the IC50 with P. falciparum strain K1 [3] and in the data set on MRC-5 cells (setting [5]) were 3.2 ± 2.6 µM and 30.6 ± 4 µM, respectively.

`CCC(C)[C@@H]1NC(=O)[C@@H]2[C@H](CCN2C(=O)[C@H](Cc2c[nH]c3ccccc23)N(C)C)Oc2ccc(O)c(c2)/C=C\NC1=O` (stereo partly shown) [Compound 16, O-desmethylnummularine-R]: the values for the IC50 with P. falciparum strain K1 [3] and in the data set with MRC-5 cells (setting [5]) were 7.1 ± 1.6 µM and greater than 64 µM, respectively.

Consider `CCC(C)[C@@H]1NC(=O)[C@@H]2[C@H](CCN2C(=O)[C@H](Cc2c[nH]c3ccccc23)N(C)C)Oc2ccc(cc2)/C=C\NC1=O` (stereo partly shown) [Compound 17, Hemsine-A], for which the IC50 was 13.6 ± 9.3 µM in the data set with P. falciparum strain K1 [3] and greater than 64 µM in the data set with MRC-5 cells (setting [5]).

As to `CCC(C)[C@@H]1NC(=O)[C@@H]2[C@H](CCN2C(=O)[C@H](C(C)CC)N(C)C)Oc2ccc(cc2)/C=C\NC1=O` (stereo partly shown) [Compound 18, Ramosine-A], the IC50 in the data set on P. falciparum strain K1 [3] was greater than 32 µM; with MRC-5 cells (setting [5]), greater than 64 µM.

Turning to `O=C1N/C=C\c2ccc(cc2)O[C@@H](c2ccccc2)[C@H](NC(=O)[C@@H]2CCCN2C(=O)/C=C/c2ccccc2)C(=O)N[C@H]1C(O)c1ccccc1` (stereo partly shown) [Compound 19, Oxyphylline-F], the results for the IC50 with P. falciparum strain K1 [3] and with MRC-5 cells (setting [5]) were 7.4 ± 3 µM and 31.2 ± 1.4 µM, respectively.

`CCC(C)[C@H](C(=O)N[C@@H](CC(C)C)C(=O)N1CC[C@@H]2Oc3ccc(OC)c(c3)/C=C\NC(=O)[C@@H]3CCCN3C(=O)[C@H]21)N(C)C` (stereo partly shown) [ziziphine-N]: the “antiplasmodial IC50” value with Plasmodium falciparum (Suksamrarn et al.) was 3.92 µg/mL. Further, the IC50 in the data set on Plasmodium falciparum (setting [6]) was 6.4 µM.

Take `CCC(C)[C@@H](NC)C(=O)N[C@@H](CC(C)C)C(=O)N1CC[C@@H]2Oc3ccc(OC)c(c3)/C=C\NC(=O)[C@@H]3CCCN3C(=O)[C@H]21` (stereo partly shown) [ziziphine-O]: the “antiplasmodial activity (in words)” value in the data set on Plasmodium falciparum (Suksamrarn et al.) is “not active”.

On to `CCC(C)[C@H](C(=O)N[C@H](C(=O)N1CC[C@@H]2Oc3ccc(OC)c(c3)/C=C\NC(=O)[C@@H]3CCCN3C(=O)[C@H]21)C(C)C)N(C)C` (stereo partly shown) [ziziphine-Q], for which the “antiplasmodial IC50” value in the data set with Plasmodium falciparum (Suksamrarn et al.) is 3.5 µg/mL. In addition, the half-maximal inhibitory concentration (IC50) with Plasmodium falciparum (setting [6]) is 5.9 µM.

mauritine-L: the “antiplasmodial activity against Plasmodium falciparum (in words)” value in the data set on Plasmodium falciparum (Panseeta et al.) is listed as “not”.

As for nummularine-B methiodide, the “antiplasmodial activity against Plasmodium falciparum (in words)” value in the data set on Plasmodium falciparum (Panseeta et al.) is listed as “not”.

Consider ziziphine-P, for which the “antiplasmodial activity (in words)” value with Plasmodium falciparum (Suksamrarn et al.) is reported as “not active”.

These data come from paper PMC6155665, “Antiplasmodial Activity, Cytotoxicity and Structure-Activity Relationship Study of Cyclopeptide Alkaloids” (Molecules : A Journal of Synthetic Chemistry and Natural …, 2017).
